In PMC10443802, “Targeting a xenobiotic transporter to ameliorate vincristine-induced sensory neuropathy” (JCI Insight, 2023):
Several values for one entry are separate records, joined by “and”; a condition that tells them apart may be missing. Identical values can stand only once.

How the values were obtained:
rASBT = rASBT (Rattus norvegicus, UniProt Q62633); experiment: Vincristine uptake screen, HeLa cells overexpressing rASBT; type: in vitro ADME
Experimental: (§1) Relative uptake is expressed as percentage change compared with empty vector controls (n = 4–14 per group). […] Human OATP1B1 and OATP1B3 transporter–overexpressed cells were used as positive controls; empty vector controls were used as the negative control. […] Mechanical allodynia (C), thermal hyperalgesia (D), and sciatic nerve maximal action potential amplitudes (E) are expressed as percentage change relative to baseline values (n = 6–8 per group). Statistical analysis was performed using a 2-way ANOVA with Bonferroni’s post hoc test. **P < 0.01, ***P < 0.001, ****P < 0.0001, compared with baseline values. […] Data are shown as mean ± SEM. […]
(§2) transfected with transporters of interest, including hOAT1, hOAT3, hOAT4, hOATP1A2, hOATP3A1, hOATP4A1, hOATP5A1, hOATP1C1, hOATP1B1, hOATP1B3, hOATP2B1, hOCT1, hOCT2, hOCTN1, hOCTN2, hASBT, hNTCP, hNPT1, hMATE1, hOSTα/β, hPEPT1, hPEPT2, rOatp1a1, rOatp1a4, rOatp1a5, rOatp1b2, rNtcp, rAsbt, rOat1, and rOct1. Cells were transfected with expression plasmid or vector control lacking any insert using Lipofectin reagent (Invitrogen). Sixteen hours thereafter, cells were washed with transport media (OPTIMEM, Invitrogen) and treated with radiolabeled drug. […] The cellular radioactivity was quantified by liquid scintillation counting as described above. […]

CCRF = experiment: Cytotoxicity of vincristine with or without nilotinib, MTT assay, CCRF; type: cell-based, human; conditions: CCRF cells, vincristine alone, individual replicates
hOAT4 = hOAT4 (Homo sapiens, UniProt Q9NSA0); experiment: Vincristine uptake screen, HeLa cells overexpressing hOAT4; type: in vitro ADME
Experimental: as §1
as §2, with “(Invitrogen).” for “(Invitrogen). Sixteen hours thereafter, cells were washed with transport media (OPTIMEM, Invitrogen) and treated with radiolabeled drug.”
(§3) Samples were analyzed using real-time quantitative PCR and Taqman Probes (Applied Biosystems). The relative gene expression was determined using the ΔΔCt method, and normalized to the mouse or human housekeeping gene, GAPDH. […]

mice = experiment: Open field locomotion, Basso Mouse Scale (BMS); type: in vivo; parameters: key: BMS score: higher = better hindlimb locomotion; normal = 9
Experimental: where the distance between two adjacent rungs is changeable (1-5 cm). The elevated ladder tests were initiated after mice had been acclimated to their surrounding for at least 4 h. The mice were placed at one end of the ladder and encouraged to move forward by a food reward at the other end of the ladder. If a […]
counted by an electrical counter. Experiments were repeated 3 times for each mouse, and an average of the three trials was used for analysis. Open-field locomotion was assessed with the Basso Mouse Scale (BMS) rating system (7). The open field was a round table that was 20.32 cm high and 1.524 m in diameter situated in a quiet testing room with normal lighting. The mice were acclimated to the testing table for 20 min daily for a week before drug administration. Two analysts blinded to the composition of the treatment groups simultaneously scored hindlimb locomotion for 4 min per mouse using a score sheet described previously (7). Parameters of interest included paw position (rotated in, rotated out, parallel placement), trunk stability, tail position, coordination, and plantar and dorsal support. Quantification was based on a scoring system where conditional variables are given a numerical representation in each category. A higher number correlates to better hindlimb locomotor function and ‘normal’ behavior scores a 9; conversely, a lower number represents abnormal locomotion. […]
by an automated ladder test. […]
using the mean Basso Mouse Scale for Locomotion (BMS) score. There were no pronounced differences […]
statistically significant.
(also on this page, place not known: Baseline Day 1 Day 2 Day 3 0 5 10 15 20 25 Number missed steps Wild-type Baseline Day 1 Day 2 Day 3 0 5 10 BMS Wild-type ns A B OATP1B2(-/-) OATP1B2(-/-) score of behavior. ns)

hOATP1A2 = hOATP1A2 (Homo sapiens, UniProt P46721); experiment: Substrate uptake in HEK293 cells overexpressing hOATP1A2; conditions: HEK293 OATP1A2
Excerpt: transfected with transporters of interest, including hOAT1, hOAT3, hOAT4, hOATP1A2, hOATP3A1, hOATP4A1, hOATP5A1, hOATP1C1, hOATP1B1, hOATP1B3, hOATP2B1, hOCT1, hOCT2, hOCTN1, hOCTN2, hASBT, hNTCP, hNPT1, hMATE1, hOSTα/β, hPEPT1, hPEPT2, rOatp1a1, rOatp1a4, rOatp1a5, rOatp1b2, rNtcp, rAsbt, rOat1, and rOct1. Cells were transfected with expression plasmid or vector control lacking any insert using Lipofectin reagent (Invitrogen). Sixteen hours thereafter, cells were washed with transport media (OPTIMEM, Invitrogen) and treated with radiolabeled drug. At various time intervals, cells were washed three times with ice-cold PBS and then lysed with 1% sodium dodecyl sulfate. The cellular radioactivity was quantified by liquid scintillation counting as described above. Similar analyses were performed in HEK293 cells transfected with hOATP1A2, hOATP1C1, mMATE1, and hMATE1, with cells seeded in poly lysine pre-coated 12-well plates. For hOATP1A2 and hOATP1C1, transient transfections were performed with either an empty vector, OATP1A2, or OATP1C1 using Lipofectamine 2000 according to the manufacturers protocol (Invitrogen). At 48 h post transfection, […]
as §3

Sequence of rASBT (Q62633 whole entry): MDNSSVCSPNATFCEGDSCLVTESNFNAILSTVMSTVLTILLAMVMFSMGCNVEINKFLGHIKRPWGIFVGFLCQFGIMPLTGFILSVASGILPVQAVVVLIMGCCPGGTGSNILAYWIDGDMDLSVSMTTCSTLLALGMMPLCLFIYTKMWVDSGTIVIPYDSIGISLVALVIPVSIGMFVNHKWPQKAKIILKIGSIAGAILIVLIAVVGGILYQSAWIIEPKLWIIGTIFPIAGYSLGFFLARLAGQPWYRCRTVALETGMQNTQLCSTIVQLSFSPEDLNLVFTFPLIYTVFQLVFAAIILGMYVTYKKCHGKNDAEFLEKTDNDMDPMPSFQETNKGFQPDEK
Sequence of hOAT4 (Q9NSA0 whole entry): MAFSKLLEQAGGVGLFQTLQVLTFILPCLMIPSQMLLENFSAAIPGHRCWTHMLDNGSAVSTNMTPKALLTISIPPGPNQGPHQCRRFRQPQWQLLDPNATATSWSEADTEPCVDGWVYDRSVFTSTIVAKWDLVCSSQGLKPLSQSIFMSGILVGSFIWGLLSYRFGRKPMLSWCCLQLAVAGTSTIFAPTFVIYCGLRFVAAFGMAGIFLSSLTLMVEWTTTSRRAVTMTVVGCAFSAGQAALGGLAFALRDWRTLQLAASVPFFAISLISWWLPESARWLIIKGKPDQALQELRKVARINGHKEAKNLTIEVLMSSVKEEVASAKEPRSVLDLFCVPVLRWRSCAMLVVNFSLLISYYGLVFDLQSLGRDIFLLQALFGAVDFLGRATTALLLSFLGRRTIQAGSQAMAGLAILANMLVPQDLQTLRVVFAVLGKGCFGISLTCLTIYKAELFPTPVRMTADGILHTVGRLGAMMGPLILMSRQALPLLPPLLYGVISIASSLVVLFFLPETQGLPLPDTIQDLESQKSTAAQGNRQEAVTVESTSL
Sequence of hOATP1A2 (P46721 whole entry): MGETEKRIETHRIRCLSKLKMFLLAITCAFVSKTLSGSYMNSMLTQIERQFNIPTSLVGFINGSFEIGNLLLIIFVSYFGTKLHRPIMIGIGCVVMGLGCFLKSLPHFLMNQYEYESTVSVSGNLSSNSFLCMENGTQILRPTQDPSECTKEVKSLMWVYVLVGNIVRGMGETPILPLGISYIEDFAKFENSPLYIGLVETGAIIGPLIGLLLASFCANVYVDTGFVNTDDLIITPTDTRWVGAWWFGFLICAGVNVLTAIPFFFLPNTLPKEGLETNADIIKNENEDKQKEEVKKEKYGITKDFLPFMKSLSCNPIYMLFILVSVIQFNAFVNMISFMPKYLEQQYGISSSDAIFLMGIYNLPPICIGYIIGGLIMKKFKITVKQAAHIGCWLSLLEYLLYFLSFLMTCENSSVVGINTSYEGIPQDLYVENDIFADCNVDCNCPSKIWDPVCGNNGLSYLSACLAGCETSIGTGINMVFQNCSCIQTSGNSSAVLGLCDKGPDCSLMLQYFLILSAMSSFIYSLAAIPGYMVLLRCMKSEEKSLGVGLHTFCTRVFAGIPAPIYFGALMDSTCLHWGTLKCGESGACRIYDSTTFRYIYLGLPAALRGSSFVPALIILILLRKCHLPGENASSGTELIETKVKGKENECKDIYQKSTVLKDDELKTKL

CC[C@]1(O)C[C@H]2CN(CCc3c([nH]c4ccccc34)[C@@](C(=O)OC)(c3cc4c(cc3OC)N(C=O)[C@H]3[C@@](O)(C(=O)OC)[C@H](OC(C)=O)[C@]5(CC)C=CCN6CC[C@]43[C@@H]65)C2)C1 [Vincristine, vincristine]
Vincristine uptake (% of vector control) (rASBT): 95.00 % of vector control and 78.00 % of vector control and 81.00 % of vector control and 90.00 % of vector control and 114.00 % of vector control and 85.00 % of vector control and 118.00 % of vector control
IC50 (CCRF): 4.56 nM and 4.49 nM and 1.65 nM and 7.48 nM and 6.4 nM and 5.53 nM and 3.87 nM and 3.24 nM and 7.33 nM
Vincristine uptake (% of vector control) (hOAT4): 107.00 % of vector control and 81.00 % of vector control and 79.00 % of vector control and 90.00 % of vector control and 80.00 % of vector control and 99.00 % of vector control and 111.00 % of vector control and 113.00 % of vector control
BMS score (mice; OATP1B2(-/-) mice, Day 1): 9
BMS score (mice; OATP1B2(-/-) mice, Day 2): 9
BMS score (mice; OATP1B2(-/-) mice, Day 3): 9
BMS score (mice; Wild-type mice, Day 1): 9 and 8
BMS score (mice; Wild-type mice, Day 2): 9 and 8
BMS score (mice; Wild-type mice, Day 3): 9
Basso Mouse Scale for Locomotion (BMS) score, average (mice; wild-type and OATP1B2(-/-) mice, single i.p. dose 1 mg/kg, up to 3 days): 9
Contribution of transporter to cellular uptake of vincristine (hOATP1A2): do not appreciably contribute to the cellular uptake of vincristine
